Test results: article PMC6925310 (SLAS discovery : advancing life sciences R & D, 2019)
Values joined by “and” are separate entries in the source; they are usually repeats but may differ in a detail not shown here. Equal values may be shown once. “Also recorded” adds a separate entry of the source. Read-outs that look alike come from different tables or passages of the source.

Columns and labels:
P. aeruginosa LysRS [1] = molecular target: T1, P. aeruginosa LysRS (Pseudomonas aeruginosa, UniProt Q9HXU0); test: SPA-based tRNA aminoacylation assay; format: biochemical
T1 sequence (Q9HXU0 1-501): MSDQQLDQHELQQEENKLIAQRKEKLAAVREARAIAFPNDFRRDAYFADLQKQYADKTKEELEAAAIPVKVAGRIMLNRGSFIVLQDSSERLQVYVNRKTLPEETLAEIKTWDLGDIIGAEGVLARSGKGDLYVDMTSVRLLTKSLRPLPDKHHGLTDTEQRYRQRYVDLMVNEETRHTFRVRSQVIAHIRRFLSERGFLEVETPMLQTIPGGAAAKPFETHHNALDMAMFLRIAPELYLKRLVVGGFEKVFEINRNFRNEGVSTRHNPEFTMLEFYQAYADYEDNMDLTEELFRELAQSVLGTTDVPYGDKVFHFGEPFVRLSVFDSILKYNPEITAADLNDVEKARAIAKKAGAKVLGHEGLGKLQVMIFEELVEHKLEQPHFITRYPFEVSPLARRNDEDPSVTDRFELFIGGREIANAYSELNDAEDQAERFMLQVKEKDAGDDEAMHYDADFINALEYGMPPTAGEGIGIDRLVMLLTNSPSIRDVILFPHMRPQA

P. aeruginosa LysRS [2] = molecular target: T1, P. aeruginosa LysRS; test: Binding mode; format: biochemical; conditions: for mechanism of inhibition with respect to ATP: IC50 at ATP 25 to 1000 μM, amino acid constant; for mechanism of inhibition with respect to ATP / mechanism of inhibition with respect to lysine: LysRS 0.01 μM; for mechanism of inhibition with respect to lysine: IC50 at lysine 25 to 300 μM, ATP 2.5 mM
M. catarrhalis = test: Time-kill kinetic assay; format: cell-based, Moraxella catarrhalis; conditions: 4×MIC, 0 to 24 h
[3] = tested on: human embryonic kidney 293 cells (HEK-293)
[4] = tested on: gram-positive bacterial cultures; conditions: cited from earlier work
eukaryotic LysRS = conditions: cited from earlier work
[5] = tested on: human embryonic kidney 293 cells (HEK-293); test: MTT cytotoxicity assay; conditions: HEK-293, MTT, 25 to 400 μg/mL, 24 h
P. aeruginosa LysRS [6] = molecular target: T1, P. aeruginosa LysRS; test: ATP:PPi exchange reaction, substrate kinetics; conditions: substrate varied, other substrate held at 2 mM; LysRS 0.1 μM

SMILES: C=CC1=C(C)/C(=C/c2[nH]c(Cc3[nH]c(/C=C4\NC(=O)C(C)=C4C=C)c(C)c3CCC(=O)O)c(CCC(=O)O)c2C)NC1=O [BM01D09, bilirubin]
- IC50 (P. aeruginosa LysRS [1]): 17 µM
- Ki (P. aeruginosa LysRS [2]): 3.5 µM
- mechanism of inhibition with respect to ATP (P. aeruginosa LysRS [2]): competing with ATP; also recorded: IC50 also increased; also recorded: competitive inhibition
- mechanism of inhibition with respect to ATP (P. aeruginosa LysRS [2]; listed as bilirubin): competitive with ATP
- mechanism of inhibition with respect to lysine (P. aeruginosa LysRS [2]): no change in the IC50
- mechanism of inhibition with respect to lysine (P. aeruginosa LysRS [2]; listed as bilirubin): noncompetitive with lysine
- global mode of inhibition (time-kill) (M. catarrhalis): bacteriostatic
- CC50 relative to MICs against susceptible bacteria [3]: 6-20 fold
- inhibition of growth of gram-positive bacterial cultures [4]: inhibitory

SMILES: C[C@H]1CCC[C@H](C[C@H]2Cc3cc(O)cc(O)c3C(=O)O2)O1 [cladosporin]
- inhibition of eukaryotic LysRS (in words) (eukaryotic LysRS): potent ATP competitive inhibitor

SMILES: S=C(N/N=C1\CCCc2c1[nH]c1ccc(C3CCCCC3)cc21)Nc1ccccc1 [BT06F11, 1-[(~›E‹)-(6-cyclohexyl-2,3,4,9-tetrahydrocarbazol-1-ylidene)amino]-3-phenylthiourea]
- mechanism of inhibition with respect to ATP (P. aeruginosa LysRS [2]): mechanism other than substrate competition; also recorded: noncompetitive; also recorded: not observed to be competitive
- mechanism of inhibition with respect to lysine (P. aeruginosa LysRS [2]): mechanism other than substrate competition; also recorded: noncompetitive; also recorded: not observed to be competitive
- global mode of inhibition (time-kill) (M. catarrhalis): bactericidal; also recorded: inhibited growth by killing the bacteria
- toxicity to human cell growth (in words) [5]: not toxic at any concentration tested; also recorded: not observed to be toxic

SMILES: NCCCC[C@H](N)C(=O)O [lysine]
- kcat^obs (P. aeruginosa LysRS [6]): 13 s⁻¹ and 13.3 s⁻¹

SMILES: O=C(CCCCCCCCC(=O)N/N=C/c1ccc([N+](=O)[O-])o1)N/N=C/c1ccc([N+](=O)[O-])o1 [BT08F04, ~›N‹,~›N‹′-bis[(~›E‹)-(5-nitrofuran-2-yl)methylideneamino]decanediamide]
- mechanism of inhibition with respect to ATP (P. aeruginosa LysRS [2]): competitive with ATP; also recorded: competitive inhibition
- mechanism of inhibition with respect to lysine (P. aeruginosa LysRS [2]): uncompetitive with the amino acid
- Ki (P. aeruginosa LysRS [2]; read-out: mean Ki, calculated from IC50 values determined at 75 μM lysine and 2.5 mM ATP, multiple determinations): 3.4 µM
- global mode of inhibition (time-kill) (M. catarrhalis): bactericidal; also recorded: inhibited growth by killing the bacteria
